Experimental data taken from ChEMBL document CHEMBL1149860, “Synthesis and neuropharmacological characterization of 2-O-substituted apomorphines” (Bioorg Med Chem, 2008).

What was measured:
D(2) dopamine receptor [1] = target: T1, D(2) dopamine receptor (Rattus norvegicus, UniProt P61169); assay: Displacement of [3H]raclopride from dopamine D2 receptor in rat striatal membrane; type: cell membranes, Striatum
D(2) dopamine receptor [2] = target: T1, D(2) dopamine receptor; assay: Displacement of [3H]raclopride from rat dopamine D2(short) receptor expressed in CHOK1 cells; type: cell-based, CHO-K1
D(2) dopamine receptor [3] = target: T1, D(2) dopamine receptor; assay: Agonist activity at rat dopamine D2(short) receptor expressed in CHOK1 cells by [35S]GTPgammaS binding assay; type: functional, cell-based, CHO-K1
[4] = target: D(2) dopamine receptor (Rattus norvegicus) (UniProt P61169); assay: Agonist activity at rat dopamine D2(short) receptor expressed in CHOK1 cells by [35S]GTPgammaS binding assay relative to quinpirole; type: functional, cell-based; conditions: CHO-K1
Sequence of D(2) dopamine receptor (Rattus norvegicus) (P61169 whole entry): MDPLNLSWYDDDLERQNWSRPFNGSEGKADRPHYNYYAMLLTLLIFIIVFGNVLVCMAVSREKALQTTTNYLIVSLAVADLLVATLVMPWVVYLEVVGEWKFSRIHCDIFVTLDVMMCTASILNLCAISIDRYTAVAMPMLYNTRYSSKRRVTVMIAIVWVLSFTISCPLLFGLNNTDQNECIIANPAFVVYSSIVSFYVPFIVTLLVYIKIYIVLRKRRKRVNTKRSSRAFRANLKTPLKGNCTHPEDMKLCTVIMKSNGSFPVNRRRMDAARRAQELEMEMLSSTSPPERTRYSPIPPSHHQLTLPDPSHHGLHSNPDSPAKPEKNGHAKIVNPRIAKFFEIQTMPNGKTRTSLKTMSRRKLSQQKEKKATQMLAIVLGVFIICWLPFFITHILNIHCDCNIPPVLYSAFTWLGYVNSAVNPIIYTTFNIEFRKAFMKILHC

D(1A) dopamine receptor = D(1A) dopamine receptor (Mus musculus, UniProt Q61616); assay: Displacement of [3H]SCH23390 from dopamine D1 receptor in mouse Ltk- fibroblast cells; type: cell-based
Sequence of D(1A) dopamine receptor (Q61616 whole entry): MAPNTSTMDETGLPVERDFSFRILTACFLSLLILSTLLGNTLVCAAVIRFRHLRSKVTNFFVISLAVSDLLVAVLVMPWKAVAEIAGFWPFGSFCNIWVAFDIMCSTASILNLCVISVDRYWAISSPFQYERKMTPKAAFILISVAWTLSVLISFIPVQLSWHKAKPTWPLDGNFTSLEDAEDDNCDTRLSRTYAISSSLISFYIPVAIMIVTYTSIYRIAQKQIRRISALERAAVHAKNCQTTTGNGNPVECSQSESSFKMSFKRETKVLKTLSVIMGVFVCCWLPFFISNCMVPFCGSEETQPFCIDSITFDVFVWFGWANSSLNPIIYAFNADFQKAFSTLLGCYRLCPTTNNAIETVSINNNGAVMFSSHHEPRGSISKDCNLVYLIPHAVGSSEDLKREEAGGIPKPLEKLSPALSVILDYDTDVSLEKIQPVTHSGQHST

D(2) dopamine receptor [5] = target: D(2) dopamine receptor (Homo sapiens, UniProt P14416); assay: biochemical
Sequence of D(2) dopamine receptor (Homo sapiens, UniProt P14416) (P14416 whole entry): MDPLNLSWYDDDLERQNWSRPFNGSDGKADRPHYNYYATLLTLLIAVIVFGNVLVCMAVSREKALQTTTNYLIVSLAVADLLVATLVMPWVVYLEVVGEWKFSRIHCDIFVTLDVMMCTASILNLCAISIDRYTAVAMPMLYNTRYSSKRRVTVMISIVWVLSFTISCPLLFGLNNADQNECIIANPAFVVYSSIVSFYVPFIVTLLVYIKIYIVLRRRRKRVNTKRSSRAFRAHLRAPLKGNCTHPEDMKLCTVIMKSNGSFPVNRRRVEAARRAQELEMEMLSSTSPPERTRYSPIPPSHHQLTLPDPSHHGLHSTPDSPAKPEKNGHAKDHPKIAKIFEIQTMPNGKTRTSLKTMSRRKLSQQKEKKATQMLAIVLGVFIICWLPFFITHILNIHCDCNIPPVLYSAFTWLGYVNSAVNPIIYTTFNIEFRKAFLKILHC
Description: Displacement of [3H]raclopride from human cloned dopamine D2 receptor expressed in CHO cell membrane

T1 sequence (P61169 whole entry): as the sequence (P61169 whole entry) above

Ki (D(2) dopamine receptor [5]) [nM]	Structure (SMILES)	Ki (D(2) dopamine receptor [1]) [nM]	Ki (D(2) dopamine receptor [2]) [nM]	EC50 (D(2) dopamine receptor [3]) [nM]	Efficacy [4] [%]	Ki (D(1A) dopamine receptor) [nM]
	CN1CCc2cc(F)cc3c2[C@H]1Cc1ccc(O)c(O)c1-3	0.43				
	CN1CCc2cc(OCCOCCO)cc3c2[C@H]1Cc1ccc(O)c(O)c1-3		587	939	58	7600
	CCCCOc1cc2c3c(c1)-c1c(ccc(O)c1O)C[C@H]3N(C)CC2		60	58	57	2100
	CSc1cc2c3c(c1)-c1c(ccc(O)c1O)C[C@H]3N(C)CC2	54.7				
3.8	CN1CCc2cc(-c3ccc(O)cc3)cc3c2[C@H]1Cc1ccc(O)c(O)c1-3					
	COc1cc2c3c(c1)-c1c(ccc(O)c1O)CC3N(C)CC2 (stereo unspecified)		74	114	66	2600
	CN1CCc2cc(OCCOc3cc4c5c(c3)-c3c(ccc(O)c3O)C[C@H]5N(C)CC4)cc3c2[C@H]1Cc1ccc(O)c(O)c1-3		345	308	18	5200
	CCCOc1cc2c3c(c1)-c1c(ccc(O)c1O)C[C@H]3N(C)CC2		75	76	71	3500
	CN1CCc2cc(OCCO)cc3c2[C@H]1Cc1ccc(O)c(O)c1-3		347	315	19	5300
88	CN1CCc2cc(-c3ccccc3)cc3c2[C@H]1Cc1ccc(O)c(O)c1-3					
	CN1CCc2cc(N)cc3c2[C@H]1Cc1ccc(O)c(O)c1-3	19.9				
	CCOc1cc2c3c(c1)-c1c(ccc(O)c1O)C[C@H]3N(C)CC2		44	55	70	2900
	CN1CCc2cc(OCCOCCOc3cc4c5c(c3)-c3c(ccc(O)c3O)C[C@H]5N(C)CC4)cc3c2[C@H]1Cc1ccc(O)c(O)c1-3		17200	> 10000		> 10000
